Assay results from patent US6495517B2, “Cyclooxygenase inhibitor” (A. Natterman & Cie. GmbH, priority 1998, dated 2002).

What was measured:
rat = test: LD50 determination in rats; format: in vivo
[1] = LD50 determination, oral administration; conditions: mouse, in vivo
[2] = target: T1, Cyclooxygenase 2 derived from sheep placentae (Ovis aries, UniProt P79208); test: In vitro inhibition of cyclooxygenase 2 activity (synthesis of prostaglandin H2 from 14C-arachidonic acid, TLC autoradiography); conditions: sheep placenta COX-2, 35° C., 30 min
T1 sequence (P79208 17-603): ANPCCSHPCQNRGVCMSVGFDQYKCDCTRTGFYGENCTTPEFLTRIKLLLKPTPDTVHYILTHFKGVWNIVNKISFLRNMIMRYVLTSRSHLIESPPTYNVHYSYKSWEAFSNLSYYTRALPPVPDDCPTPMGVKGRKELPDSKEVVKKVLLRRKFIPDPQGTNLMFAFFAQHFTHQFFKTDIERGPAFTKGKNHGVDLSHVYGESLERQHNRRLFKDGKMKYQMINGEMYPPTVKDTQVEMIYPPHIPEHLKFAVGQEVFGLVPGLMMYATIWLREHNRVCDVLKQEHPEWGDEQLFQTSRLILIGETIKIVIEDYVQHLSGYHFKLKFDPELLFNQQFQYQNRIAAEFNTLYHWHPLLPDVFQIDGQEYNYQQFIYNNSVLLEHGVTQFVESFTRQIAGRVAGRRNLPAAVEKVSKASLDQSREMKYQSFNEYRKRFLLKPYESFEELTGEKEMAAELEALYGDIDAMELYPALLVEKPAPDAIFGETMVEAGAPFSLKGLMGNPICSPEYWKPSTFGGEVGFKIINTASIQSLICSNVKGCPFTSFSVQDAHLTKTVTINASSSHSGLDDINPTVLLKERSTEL
Procedure: Arachidonic acid was used as the substrate in the present example. Ten μl of arachidonic acid was dissolved in methanol (10 mg/ml) and mixed with 5 μCi of ^14C-labeled arachidonic acid; and to obtain a dried substrate, the solvent was evaporated by blowing with nitrogen gas at room temperature. Subsequently, the substrate was dissolved in 50 μl of dimethylsulfoxide (DMSO), and 10 ml of 5 mM Tris-HCl buffer (pH 8.0) containing 2 mM phenol was added to the substrate solution, followed by sonication to completely dissolve the sample. Separately, test compounds having final concentrations of 0.1-10 μM were prepared. […] Five μl of each compound solution was added to 5 μl of the above substrate solution, followed by mixing. The samples were then preincubated at 35° C. for about 10 min. Cyclooxygenase 2 derived from sheep placentae (Cayman Chem.) had been separately diluted 10-fold with the above buffer, and 20 μl of the enzyme solution was added to each of the above samples. The enzyme reaction was carried out at 35° C. for 30 min, and stopped by adding 0.5 ml of ice-cold ethanol to each sample. Then, to 0.9 ml of each sample, 2.0 ml of 2% acetic acid solution was added. Arachidonic acid and its metabolite prostaglandin H2 were then extracted with 3.0 ml of ethyl acetate. From each extracted sample, a 2.0-ml portion was transferred to a new test tube. The solvent was distilled off from the transferred samples under reduced pressure, and the samples were dried in vacuo. Then each dried sample was dissolved in 100 μl of methanol, out of which 5 μl was subjected to analysis by high resolution thin layer chromatography. Arachidonic acid and its metabolite prostaglandin H2 were separated by chromatography with a developing solution of chloroform, ethyl acetate, methanol, acetic acid and water in proportions of 70:30:8:1:0.5 (v/v). The chromatography plate, together with a ^14C-standard substance, was exposed to an imaging plate (Fuji Film), and was analyzed with Fuji Film Bio-Image analyzer BAS-2000 to obtain an autoradiogram. By scanning of spots corresponding to the standard radioactive samples, a standard dose-response curve was plotted. Then, by use of the standard curve, each scanned value of arachidonic acid spots and prostaglandin H2 spots was converted to a amount of radiation. Indomethacin was purchased from Sigma, and PZ25 was a gift from Rhone-Poulenc Rorer.

[3] = LD50 determination, intraperitoneal administration; conditions: mouse, in vivo, ip

O=c1c2ccccc2[se]n1-c1ccccc1 [Compound A, 2-phenyl-1,2-benzisoselenazol-3(2H)-one]
LD50 (rat): large doses were required
LD50 [1]: ≥ 6810 mg/kg
Generated Amount of Prostaglandin H2 (%) ([2]; dose of compound 1 μM): 91.8 ± 14.3%
Generated Amount of Prostaglandin H2 (%) ([2]; dose of compound 3 μM): 78.6 ± 5.28%
Generated Amount of Prostaglandin H2 (%) ([2]; dose of compound 10 μM): 46.88 ± 6.49 %
Generated Amount of Prostaglandin H2 (%) ([2]; dose of compound 30 μM): 20.10 ± 1.95 %
LD50 [3]: 740 mg/kg

O=c1c2ccccc2sn1-c1ccccc1 [PZ25, 2-phenyl-1,2-benzisothiazol-3(2H)-one, reference compound]
Generated Amount of Prostaglandin H2 (%) ([2]; dose of compound 3 μM): 103.25 ± 9.29%
Generated Amount of Prostaglandin H2 (%) ([2]; dose of compound 10 μM): 103.53 ± 11.2%
Generated Amount of Prostaglandin H2 (%) ([2]; dose of compound 30 μM): 93.9 ± 9.06%
